Measured values reported in patent US5854280A, “Antifungal sordaridin derivatives” (Glaxo Wellcome S.A., priority 1994, dated 1998).
Converted amounts (≈) assume the structure as drawn.

Experiments:
[1] = British Patent 1,162,027 / Japanese application J6 2040292A; cited from earlier work
[2] = tested on: battery of fungal organisms; details: tested against a battery of fungal organisms; cited from earlier work
[3] = tested on: C. psuedotropicalis 2371E; assay: in vitro antifungal MIC, two-fold serial dilution; assay type: cell-based, Candida pseudotropicalis
Method: (§1) The in vitro evaluation of the anti-fungal activity of compounds of the invention was performed on liquid or solid medium by the anti-fungal two-fold serial dilution technique of determining the minimum inhibitory concentration (MIC) of anti-fungal agent that inhibited development of growth after 24 to 48 hours of incubation at 37° C. In practice, a series of agar plates or broth microdilution panels containing two-fold dilutions of anti-fungal agent tested were inoculated with a standard culture of a clinically relevant pathogen, for example, Candida albicans. The agar plates or broth microdulution panels were then examined for the presence or absence of growth of the fungus and the appropriate MIC values were noted.
(§2) Compounds of formula (I) have been tested for anti fungal activity in a standard in vitro screen and the minimum inhibiting concentration (MIC; μg/ml) determined for each compound against a variety of clinically relevant pathogens.

C. neoformans 2867E = assay: in vitro antifungal MIC, two-fold serial dilution; assay type: cell-based, Cryptococcus neoformans
Method: as §1, §2

C. tropicalis 2808E = assay: in vitro antifungal MIC, two-fold serial dilution; assay type: cell-based, Candida tropicalis
Method: as §1, §2

C. albicans 1208E = assay: in vitro antifungal MIC, two-fold serial dilution; assay type: cell-based, Candida albicans
Method: as §1, §2

C. albicans 4711 = assay: in vitro antifungal MIC, two-fold serial dilution; assay type: cell-based, Candida albicans
Method: as §1, §2

C. albicans 2005E = assay: in vitro antifungal MIC, two-fold serial dilution; assay type: cell-based, Candida albicans
Method: as §1, §2

C. aibicans 2402E = assay: in vitro antifungal MIC, two-fold serial dilution; assay type: cell-based, Candida albicans
Method: as §1, §2

C. glabrata 2375E = assay: in vitro antifungal MIC, two-fold serial dilution; assay type: cell-based, Candida glabrata
Method: as §1, §2

C. glabrata 2376E = assay: in vitro antifungal MIC, two-fold serial dilution; assay type: cell-based, Candida glabrata
Method: as §1, §2

[4] = acute oral toxicity (LD50); assay type: in vivo; details: male mice
Method: (§3) The compounds of the invention are essentially non-toxic at therapeutically useful levels. […] The LD50 value for the compound of example 8, in male mice is >1000 mg/kg po.

C. albicans 4711E = assay: protection of mice infected with C. albicans; assay type: in vivo, male mice infected with C. albicans 4711E; details: 50 mg/kg po
Text: The in vivo evaluation of compounds of formula (I) can be carried out at a series of dose levels by administration (e.g. subcutaneously, orally, intraperitoneally or intravenously) to mice or rats inoculated with a strain of Candida albicans. Untreated animals die within 3 to 9 days and the dose level at which the test compound provides 50% protection against the lethal effect of the infection is noted.
as §3

MIC (minimum inhibiting concentration) [3] | MIC (minimum inhibiting concentration) (C. neoformans 2867E) | MIC (minimum inhibiting concentration) (C. tropicalis 2808E) | MIC (minimum inhibiting concentration) (C. albicans 1208E) | MIC (minimum inhibiting concentration) (C. albicans 4711) | MIC (minimum inhibiting concentration) (C. albicans 2005E) | MIC (minimum inhibiting concentration) (C. aibicans 2402E) | MIC (minimum inhibiting concentration) (C. glabrata 2375E) | MIC (minimum inhibiting concentration) (C. glabrata 2376E) | SMILES | reported activity [1] | antifungal activity [2] | spectrum of action [2] | LD50 [4] | activity in protecting male mice infected with C. albicans 4711E (C. albicans 4711E)
 |  |  |  |  |  |  |  |  | CO[C@H]1[C@@H](O)[C@H](O)[C@H](OC[C@@]23C[C@@H]4[C@H](C)CC[C@H]4[C@@]4(C=O)CC2C=C(C(C)C)[C@@]34C(=O)O)O[C@@H]1C [sordarin] | fungistatic activity | only moderately active | limited spectra of action |  | 
 |  |  |  |  |  |  |  |  | C/C=C/C=C\C(=O)O[C@H]1[C@H](O)[C@H](OCC23C[C@@H]4[C@H](C)CC[C@H]4C4(C=O)CC2C=C(C(C)C)C34C(=O)O)O[C@H](C)[C@H]1OC (some centres unmarked) [zofimarin] | antifungal activity | only moderately active | limited spectra of action |  | 
0.015 µg/mL (≈ 0.03 µM) | 1.00 µg/mL (≈ 2 µM) | 0.250 µg/mL (≈ 0.499 µM) | 0.060 µg/mL (≈ 0.12 µM) | 0.030 µg/mL (≈ 0.0599 µM) | 0.060 µg/mL (≈ 0.12 µM) | 0.002 µg/mL (≈ 0.00399 µM) | 31.00 µg/mL (≈ 61.9 µM) | 31.00 µg/mL (≈ 61.9 µM) | C=CCOC1C(C)OC(OCC23CC4C(C)CCC4C4(C=O)CC2C=C(C(C)C)C43C(=O)O)C2OC12 [Example 68, [1R-(1α,3aβ,4β,4aβ,7β,7aβ,8aβ)]8a-[(4-O-Allyl,2,3-anhydro,6deoxy-β-D-mannopyranosyl)oxy-methyl]-4-formyl-4,4a5,6,7,7a8,8a-octahydro-7-methyl-3-(1-methylethyl)-1,4-methano-s-indacene-3a(1H)-carboxylic acid] |  |  |  |  | 
0.015 µg/mL (≈ 0.0283 µM) | 1.00 µg/mL (≈ 1.88 µM) | 0.015 µg/mL (≈ 0.0283 µM) | 0.015 µg/mL (≈ 0.0283 µM) | 0.002 µg/mL (≈ 0.00377 µM) | ≤ 0.001 µg/mL | 0.008 µg/mL (≈ 0.0151 µM) | 16.0 µg/mL (≈ 30.2 µM) | 16.0 µg/mL (≈ 30.2 µM) | CC(C)C(=O)OC1C(C)OC(OCC23CC4C(C)CCC4C4(C=O)CC2C=C(C(C)C)C43C(=O)O)C2OC12 [Example 59, [1R-(1α,3aβ,4β,4aβ,7β,7aα,8aβ)]8a-[(2,3-Anhydro-6-deoxy-4-O-(1-methylethyl)carbonyl-β-D-mannopyranosyloxy)methyl]-4-formyl-4,4a,5,6,7,7a,8,8a-octahydro-7-methyl-3-(1-methylethyl)-1,4-methano-s-indacene-3a(1H)-carboxylic acid] |  |  |  |  | 
 |  |  |  |  |  |  |  |  | CC(C)C1=CC2CC3(C=O)C4CCC(C)C4CC2(COC2CC4OC(C)(C)OC4C(C)O2)C13C(=O)[O-].[Na+] [Example 8, [1R-(1α,3aβ,4β,4aβ,7β,7aα,8aβ)]8a-[(2,6-Dideoxy-3,4-O-isopropylidene-β-D-allopyranosyloxy)methyl]-4-formyl-4,4a,5,6,7,7a,8,8a-octahydro-7-methyl-3-(1-methylethyl)-1,4-methano-s-indacene-3a(1H)-carboxylic acid, sodium salt] |  |  |  | > 1000 mg/kg | active in protecting male mice

SMILES | MIC (minimum inhibiting concentration) [3] | MIC (minimum inhibiting concentration) (C. neoformans 2867E) | MIC (minimum inhibiting concentration) (C. tropicalis 2808E) | MIC (minimum inhibiting concentration) (C. albicans 1208E) | MIC (minimum inhibiting concentration) (C. albicans 4711) | MIC (minimum inhibiting concentration) (C. albicans 2005E) | MIC (minimum inhibiting concentration) (C. aibicans 2402E) | MIC (minimum inhibiting concentration) (C. glabrata 2375E) | MIC (minimum inhibiting concentration) (C. glabrata 2376E) | reported activity [1] | antifungal activity [2] | spectrum of action [2] | LD50 [4] | activity in protecting male mice infected with C. albicans 4711E (C. albicans 4711E)
COC1C(C)OC(OCC23CC4C(C)CCC4C4(C=O)CC2C=C(C(C)C)C43C(=O)O)C2SC12 [Example 51, [1R-(1α,3aβ,4β,4aβ,7β,7aα,8aβ)]8a-[(2,3-Epithio-4-O-methyl-2,3,6-trideoxy-β-D-mannopyranosyloxy)methyl]-4-formyl-4,4a,5,6,7,7a,8,8a-octahydro-7-methyl-3-(1-methylethyl)-1,4-methano-s-indacene-3a(1H)-carboxylic acid] | 0.008 µg/mL (≈ 0.0163 µM) | ≤ 125 µg/mL | 0.500 µg/mL (≈ 1.02 µM) | 0.120 µg/mL (≈ 0.245 µM) | 0.120 µg/mL (≈ 0.245 µM) | 0.030 µg/mL (≈ 0.0611 µM) | 0.120 µg/mL (≈ 0.245 µM) | 16.00 µg/mL (≈ 32.6 µM) | 16.00 µg/mL (≈ 32.6 µM) |  |  |  |  | 
